From publication PMC5951806, “Rapid labelling and covalent inhibition of intracellular native proteins using ligand-directed N-acyl-N-alkyl sulfonamide” (Nature Communications, 2018)

Tests used:
[1] = target: tubulin beta chain (TUBB) (Homo sapiens, UniProt P07437); experiment: TMT LC-MSMS of 11-labelled proteins; assay type: cell-based
From the text: (§1) The labelled proteins were enriched by immunoprecipitation with an anti-fluorescein antibody and tryptically digested in gel. Digested peptides were modified with Light- (L-), Medium- (M-), or Heavy- (H-) TMT reagent for samples treated with 11, 11 with PU-H71 (as competitive condition), or DMSO (vehicle), respectively, and mixed in a 1:1:1 ratio for LC-MSMS analysis. We performed three experimental replicates, in which proteins detected and quantified at least twice were selected as identified proteins. According to the related approach of Cravatt et al[44], the proteins having L/H (11/DMSO) ratios >5 were defined as 11-labelled proteins. […] On the basis of these criteria, we identified 6 proteins that react with 11, including three ligand-specific targets (Hsp90α (HSP90AA1), Hsp90β (HSP90AB1), and Grp94 (HSP90B1)) and three off-targets (Trifunctional enzyme subunit α (HADHA), Tubulin-α (TUBA1B), and ADP/ATP translocase 3 (SLC25A6)) (Fig. 5d, e and Supplementary Data 1). […] Grp94, a HSP90 isomer, was previously reported to be a PU-H71 specific target. TRAP-1, another Hsp90 isomer that can bind PU-H71, on the other hand, was not identified as 11-target by our criteria.
(§2) SKBR3 human breast cancer cells (2.0 × 10^6 cells) were seeded on a 10 cm dish and cultured for 3 days in McCoy’s 5A in a 5% CO2 humidified chamber at 37 °C. […] As competitive experiments, the labelling was conducted in the presence of PU-H71 (10 µM). After labelling, the cells were washed twice with PBS, and lysed with RIPA buffer. […] The supernatant was mixed with chilled acetone and incubated overnight at −80 °C. The protein precipitates were solubilized by sonication in 1 mL of RIPA buffer containing 1% SDS, and then 10-fold diluted with RIPA buffer to reduce SDS concentration to c.a. 0.1%. The protein solution (containing 1 mg of protein) was mixed with Protein G Sepharose 4 Fast Flow (GE Healthcare) and rotated at 4 °C for 1 h. After removal of the beads, the remaining supernatant was mixed with anti-fluorescein antibody (Abcam, ab19491, 7:10000) and rotated at 4 °C for 1 h, followed by addition of fresh Protein G Sepharose 4 Fast Flow and further incubation at 4 °C for 4 h. The beads were washed five times with RIPA buffer and once with PBS. Proteins were eluted from the beads by addition of 2 × sample buffer containing 100 mM DTT and boiling at 95 °C for 5 min. The samples were subjected to a 7.5% SDS–PAGE gel (Mini-PROTEAN TGX Gels, BioRad), and electrophoresed as the migration distance of dye front is about 10 mm. Each lane was excised (height, 10 mm), and treated with a 47.5% methanol / 47.5% pure water / 5% acetic acid for 20 min, a 50% methanol / 50% pure water for 10 min, and in pure water for 10 min. The gel pieces were dehydrated with 100% acetonitrile, and then swelled with 200 μL of 100 mM TEAB (triethylamine bicarbonate) buffer containing 10 mM DTT and heated at 56 °C for 30 min. The solutions were replaced with 200 µL of 100 mM TEAB buffer containing 55 mM iodoacetamide and incubated for 45 min in the dark. The gel pieces were washed with 100 mM TEAB buffer and dehydrated in acetonitrile. This step was repeated once. The gels were reswelled in 100 mM TEAB buffer containing 10 ng/μL Sequencing Grade Trypsin (Promega) and incubated overnight at 37 °C. To the gels, 50 μL of an extraction solution (50% acetonitrile, 0.1% TFA) was added. After 10 min incubation, the supernatants were collected to new tubes, and this process was repeated twice. Extracted peptides were dried in vacuo and reconstituted with 25 μL of 100 mM TEAB buffer.

[2] = target: T1, ATP-citrate synthase (ACLY) (Homo sapiens, UniProt P53396); experiment: TMT LC-MSMS of 11-labelled proteins; assay type: cell-based
T1 sequence (P53396 1-1101): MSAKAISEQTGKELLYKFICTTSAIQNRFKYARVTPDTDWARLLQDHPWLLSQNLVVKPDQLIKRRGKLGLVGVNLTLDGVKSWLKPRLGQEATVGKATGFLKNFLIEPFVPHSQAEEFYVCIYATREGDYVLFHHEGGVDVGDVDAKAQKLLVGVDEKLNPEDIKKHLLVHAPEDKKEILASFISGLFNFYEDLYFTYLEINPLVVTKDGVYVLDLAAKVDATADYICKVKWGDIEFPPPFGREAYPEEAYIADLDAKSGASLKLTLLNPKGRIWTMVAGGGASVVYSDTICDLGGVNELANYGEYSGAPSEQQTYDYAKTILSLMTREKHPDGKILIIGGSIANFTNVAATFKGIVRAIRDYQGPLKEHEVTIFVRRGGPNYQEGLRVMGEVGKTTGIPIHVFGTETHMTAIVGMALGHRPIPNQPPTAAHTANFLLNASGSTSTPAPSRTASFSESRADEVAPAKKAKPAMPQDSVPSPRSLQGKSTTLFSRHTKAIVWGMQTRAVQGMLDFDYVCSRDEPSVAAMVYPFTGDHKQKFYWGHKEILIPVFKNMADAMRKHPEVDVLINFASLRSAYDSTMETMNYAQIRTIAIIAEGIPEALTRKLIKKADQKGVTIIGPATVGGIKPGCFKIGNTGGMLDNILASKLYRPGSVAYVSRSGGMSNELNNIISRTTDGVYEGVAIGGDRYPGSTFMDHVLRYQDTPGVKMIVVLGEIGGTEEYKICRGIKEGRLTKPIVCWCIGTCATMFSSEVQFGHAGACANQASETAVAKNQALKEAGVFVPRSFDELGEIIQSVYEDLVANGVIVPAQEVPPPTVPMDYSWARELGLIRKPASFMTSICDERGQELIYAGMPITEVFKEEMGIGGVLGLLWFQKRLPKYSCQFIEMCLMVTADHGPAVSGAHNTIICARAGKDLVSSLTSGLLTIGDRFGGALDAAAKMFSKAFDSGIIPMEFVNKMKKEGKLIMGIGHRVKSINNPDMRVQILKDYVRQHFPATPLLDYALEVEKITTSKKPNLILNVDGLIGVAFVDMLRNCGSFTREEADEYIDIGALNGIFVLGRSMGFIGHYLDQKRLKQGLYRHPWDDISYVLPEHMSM
From the text: as §1, §2

[3] = sheet Merged, SKBR3 cells, 11 0.5 µM 3 h vs DMSO
[4] = sheet Merged, SKBR3 cells, 11 0.5 µM 3 h vs with PU-H71 10 µM

Chain of tubulin beta chain (TUBB) (P07437 whole entry): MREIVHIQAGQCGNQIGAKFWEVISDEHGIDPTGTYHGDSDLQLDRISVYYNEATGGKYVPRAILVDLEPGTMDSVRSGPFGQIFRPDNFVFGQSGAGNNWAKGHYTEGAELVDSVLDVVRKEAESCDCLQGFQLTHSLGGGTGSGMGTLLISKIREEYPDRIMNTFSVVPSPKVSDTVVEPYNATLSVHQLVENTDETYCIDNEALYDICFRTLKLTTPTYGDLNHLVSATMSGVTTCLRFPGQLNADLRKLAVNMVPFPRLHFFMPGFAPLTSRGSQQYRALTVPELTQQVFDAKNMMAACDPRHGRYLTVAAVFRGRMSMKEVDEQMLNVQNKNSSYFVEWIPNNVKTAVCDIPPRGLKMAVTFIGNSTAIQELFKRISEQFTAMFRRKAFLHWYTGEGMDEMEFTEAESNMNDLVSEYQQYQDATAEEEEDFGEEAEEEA
Chain of tubulin beta chain (TUBB) (P68363 whole entry partner): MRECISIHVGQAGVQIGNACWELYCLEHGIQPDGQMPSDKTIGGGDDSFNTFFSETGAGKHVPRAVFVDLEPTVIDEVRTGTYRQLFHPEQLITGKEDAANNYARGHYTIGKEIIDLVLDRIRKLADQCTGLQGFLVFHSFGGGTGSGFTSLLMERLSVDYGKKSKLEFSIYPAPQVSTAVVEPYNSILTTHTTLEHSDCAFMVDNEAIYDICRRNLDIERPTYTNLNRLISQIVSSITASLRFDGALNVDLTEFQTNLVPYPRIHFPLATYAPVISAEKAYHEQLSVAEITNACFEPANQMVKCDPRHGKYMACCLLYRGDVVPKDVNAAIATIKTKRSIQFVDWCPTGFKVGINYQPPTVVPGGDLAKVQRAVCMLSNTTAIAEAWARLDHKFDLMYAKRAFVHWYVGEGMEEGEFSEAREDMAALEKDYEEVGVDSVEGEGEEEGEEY

CC(=O)Oc1ccc2c(c1)Oc1cc(OC(C)=O)ccc1C21OC(=O)c2cc(C(=O)NCCOCCOCCNC(=O)CCCC(=O)N(CC#N)S(=O)(=O)c3ccc(C(=O)NCCCn4c(Sc5cc6c(cc5I)OCO6)nc5c(N)ncnc54)cc3)ccc21 [compound 11]
Abundance Ratio: (11) / (11 with PU-H71) ([1]; Exp3, TUBB): 0.804
Abundance Ratio: (11) / (DMSO) ([1]; Exp3, TUBB): 4.633
Abundances (Grouped): 11 ([1]; Exp3, TUBB): 127.4
Abundances (Grouped): 11 with PU-H71 ([1]; Exp3, TUBB): 158.4
Abundance Ratio: (11) / (DMSO) ([1]; sheet Exp1, SKBR3 cells, 11 0.5 µM 3 h vs DMSO): 3.833
Abundance Ratio: (11) / (11 with PU-H71) ([1]; sheet Exp1, SKBR3 cells, 11 0.5 µM 3 h vs with PU-H71 10 µM): 0.775
Abundance Ratio: (11) / (11 with PU-H71) ([1]; sheet Exp2, TUBB): 0.757
Abundance Ratio: (11) / (DMSO) ([1]; sheet Exp2, TUBB): 3.139
Abundances (Grouped): 11 ([1]; sheet Exp2, TUBB): 115.5
Abundances (Grouped): 11 with PU-H71 ([1]; sheet Exp2, TUBB): 152.6
Abundance Ratio: (11) / (DMSO) [1, 3]: 3.599
Abundance Ratio: (11) / (11 with PU-H71) [1, 4]: 0.804
Abundance Ratio: (11) / (11 with PU-H71) ([2]; Exp3, ACLY): 0.932
Abundance Ratio: (11) / (DMSO) ([2]; Exp3, ACLY): 2.236
Abundances (Grouped): 11 ([2]; Exp3, ACLY): 52.1
Abundances (Grouped): 11 with PU-H71 ([2]; Exp3, ACLY): 55.9
Abundance Ratio: (11) / (11 with PU-H71) ([2]; sheet Exp2, ACLY): 0.837
Abundance Ratio: (11) / (DMSO) ([2]; sheet Exp2, ACLY): 2.101
Abundances (Grouped): 11 ([2]; sheet Exp2, ACLY): 33.4
Abundances (Grouped): 11 with PU-H71 ([2]; sheet Exp2, ACLY): 39.9
Abundance Ratio: (11) / (DMSO) [2, 3]: 2.047
Abundance Ratio: (11) / (11 with PU-H71) [2, 4]: 0.851
